Holding throughout (assay type): cell-based
In one assay the test system is HL-60. Put plainly: In vitro inhibition, CellTiter-Glo (CTG) assay, HL-60. The following applies: HL-60, 72 hr exposure. On the procedure: (§1) Cells were grown in RPMI-1640 supplemented with L-Glutamine and 10% FBS of the following cancer cell lines:
(§2) CCRF-CEM; CCRF-CEM-cytarabine resistant; HL-60;
(§3) 18, 96 well plates of each cell line were seeded with the optimized number of cells per well in a total volume of 50 μL per well. The plates were left overnight. Plate wells were seeded with 100 μL media for media control. The following day, cells were exposed to test compounds as described below. At the same time as drug exposure, a CTG assay was conducted on the 18th plate for the 0 hr count.
(§4) The compounds were added to cells and medium already on the plate to give desired final concentrations. 50 μL media were added to cell control wells, and 50 μL of mix added to vehicle control wells. 10 μM Doxorubicin was added to appropriate wells as control. Cells exposed to test compound were incubated at 37° C. for 72 hr followed by a CTG assay.
(§5) At the end of the 72 hr exposure period, plates were removed for a CellTiter-Glo (CTG) assay from a 37° C., 5% CO2 incubator and placed on the bench at room temperature for 30 mins. 100 μL of CellTiter-Glo reagent was added and mixed for 2 mins, followed by a further 10 min incubation at room temperature. Luminescence was recorded using Synergy 4.0.

A further assay relates to CCRF-CEM. Put plainly: In vitro inhibition, CellTiter-Glo (CTG) assay, CCRF-CEM. The following applies: 72 hr exposure. On the procedure:
as §1, §2, §3, §4, §5
On the technique in general: Cellular ATP, detected with luciferase, serves as a proxy for viable cell number.

The test system of assay [1] is CCRF-CEM-cytarabine resistant. The assay can be described thus: In vitro inhibition, CellTiter-Glo (CTG) assay, CCRF-CEM-cytarabine resistant. The following applies: 72 hr exposure. On the procedure: as §1, §2, §3, §4, §5

From patent US20170101431A1, “NUCLEOSIDE DERIVATIVES FOR THE TREATMENT OF CANCER” (IDENIX PHARMACEUTICALS LLC, priority 2014, published 2017) come the findings set out here.

Each structure is given as a SMILES string. pIC50: −log10 of the molar value.

In the case of `C[C@H](NP(=O)(OCc1ccc([N+](=O)[O-])s1)OC[C@H]1O[C@@H](n2ccc(N)nc2=O)[C@@H](O)[C@@H]1O)C(=O)OCc1ccccc1` (single isomer, unassigned) [24f (diastereoisomer 1)], the pIC50 in the assay on HL-60 (Homo sapiens, HL-60, 72 h) is 4.60 to 5.00; in the assay with CCRF-CEM (Homo sapiens), > 6.00; in assay [1] (72 h), 4.60 to 5.00.
Take `C[C@H](NP(=O)(OCc1ccc([N+](=O)[O-])s1)OC[C@H]1O[C@@H](n2ccc(N)nc2=O)[C@@H](O)[C@@H]1O)C(=O)OCc1ccccc1` (single isomer, unassigned) [24f (diastereoisomer 2)]: the pIC50 in the assay with HL-60 was 4.60 to 5.00; in the assay with CCRF-CEM, > 6.00; in assay [1], 4.60 to 5.00.
`Nc1ccn([C@@H]2O[C@H](COP(=O)(NCc3ccccc3)OCc3ccc([N+](=O)[O-])o3)[C@@H](O)[C@@H]2O)c(=O)n1` (single isomer, unassigned) [25 (diastereoisomer 1)]: the pIC50 with HL-60 (Homo sapiens, HL-60, 72 h) was 5.00 to 6.00; in the assay with CCRF-CEM (Homo sapiens), > 6.00; in assay [1] (72 h), 4.60 to 5.00.
With `Nc1ccn([C@@H]2O[C@H](COP(=O)(NCc3ccccc3)OCc3ccc([N+](=O)[O-])o3)[C@@H](O)[C@@H]2O)c(=O)n1` (single isomer, unassigned) [25 (diastereoisomer 2)], the negative logarithm of the IC50 (pIC50) with HL-60 is 5.00 to 6.00; in the assay on CCRF-CEM it was > 6.00; in assay [1] it was 4.60 to 5.00.
`C[C@H](NP1(=O)OC[C@H]2O[C@@H](n3cnc4c(N)nc(Cl)nc43)[C@@H](F)[C@@H]2O1)C(=O)OCc1ccccc1` (single isomer, unassigned) [Compound 26a]: the pIC50 in the assay with HL-60 (Homo sapiens, HL-60, 72 h) is > 6.00; in the assay with CCRF-CEM (Homo sapiens) it was > 6.00; in assay [1] (72 h), 5.00 to 6.00.
On to `C[C@H](NP1(=O)OC[C@H]2O[C@@H](n3cnc4c(N)nc(Cl)nc43)[C@@H](F)[C@@H]2O1)C(=O)OCc1ccccc1` (single isomer, unassigned) [Compound 26b], for which the negative logarithm of the IC50 (pIC50) is > 6.00 in the assay with HL-60, > 6.00 in the assay on CCRF-CEM and 5.00 to 6.00 in assay [1].
Take `CCOC(=O)[C@H](C)NP1(=O)OC[C@H]2O[C@@H](n3cnc4c(N)nc(Cl)nc43)[C@@H](F)[C@@H]2O1` (stereo partly drawn) [Compound 10, Ethyl (2S)-2-[[(4aR6R,7S,7aR)-6-(6-amino-2-chloro-purin-9-yl)-7-fluoro-2-oxo-4a,6,7,7a-tetrahydro-4H-furo[3.2-d][1,3,2]dioxaphosphinin-2-yl]amino]propanoate]: the negative logarithm of the IC50 (pIC50) with HL-60 (Homo sapiens, HL-60, 72 h) is 5.00 to 6.00; in the assay with CCRF-CEM (Homo sapiens), > 6.00; in assay [1], 4.00 to 4.60.
Take `CCOC(=O)[C@H](C)NP1(=O)OC[C@H]2O[C@@H](n3cnc4c(N)nc(Cl)nc43)[C@@H](F)[C@@H]2O1` (stereo partly drawn) [Compound 11, Ethyl (2S)-2-[[(4aR6R,7S,7aR)-6-(6-amino-2-chloro-purin-9-yl)-7-fluoro-2-oxo-4a,6,7,7a-tetrahydro-4H-furo[3.2-d][1,3,2]dioxaphosphinin-2-yl]amino]propanoate]: the pIC50 was > 6.00 in the assay on HL-60, > 6.00 in the assay on CCRF-CEM and 5.00 to 6.00 in assay [1].
On to `Nc1ccn([C@@H]2O[C@H](COP(=O)(OCc3cnc([N+](=O)[O-])s3)OCc3cnc([N+](=O)[O-])s3)[C@@H](O)[C@@H]2O)c(=O)n1` [Compound 24b, [(2R,3S,4S,5R)-5-(4-amino-2-oxo-pyrimidin-1-yl)-3,4-dihydroxy-tetrahydrofuran-2-yl]methyl bis[(2-nitrothiazol-5-yl)methyl]phosphate], for which the pIC50 with HL-60 (Homo sapiens) is > 6.00; in the assay on CCRF-CEM (Homo sapiens) it was > 6.00; in assay [1] it was 4.60 to 5.00.
On to `Cn1c(COP(=O)(OCc2cnc([N+](=O)[O-])s2)OC[C@H]2O[C@@H](n3ccc(N)nc3=O)[C@@H](O)[C@@H]2O)cnc1[N+](=O)[O-]` (stereo partly drawn) [Compound 24c, [(2R,3S,4S,5R)-5-(4-amino-2-oxo-pyrimidin-1-yl)-3,4-dihydroxy-tetrahydrofuran-2-yl]methyl (3-methyl-2-nitro-imidazol-4-yl)methyl (2-nitrothiazol-5-yl)methyl phosphate], for which the negative-log IC50 (pIC50) is > 6.00 with HL-60 (Homo sapiens), > 6.00 in the assay on CCRF-CEM (Homo sapiens) and 4.60 to 5.00 in assay [1].
Consider `Nc1ccn([C@@H]2O[C@H](COP(=O)(OCc3ccc([N+](=O)[O-])o3)OCc3ccc([N+](=O)[O-])o3)[C@@H](O)[C@@H]2O)c(=O)n1` [Compound 24e, [(2R,3S,4S,5R)-5-(4-amino-2-oxo-pyrimidin-1-yl)-3,4-dihydroxy-tetrahydrofuran-2-yl]methyl bis[(5-nitro-2-furyl)methyl]phosphate], for which the pIC50 in the assay on HL-60 (Homo sapiens) is > 6.00; with CCRF-CEM (Homo sapiens) it was > 6.00; in assay [1], 4.60 to 5.00.

For orientation: pIC50 means the negative decadic logarithm of the IC50, by convention in mol/L.
